Tested on: Concord grapevines
Test: Repeated spray of potted Concord grapevines during the bud break period
Assay type: in vivo
Conditions: for Average number of broken buds per vine: 1000 ppm in 0.05% Silwet L77, repeated spray
Method: A study was conducted to determine the effect of spraying Concord grapevines with ABA or ABA analog PBI-429 during bud break. Potted concord grapevines were placed in greenhouse conditions to promote bud break and the vines were repeatedly sprayed with ABA or ABA analog solutions. The vines were sprayed 2, 4, 8, 12 and 14 days after exposure of the vines into bud break promoting temperatures. Bud break was rated 6, 7, 8, 11, 12, 13, 14, 15, 19 and 20 days after vines were placed in warm bud break promoting conditions.

Substance: (S)-5-(1-hydroxy-2,6,6)-trimethyl-4-oxo-2-cyclohexen-1-yl)-3-methyl-(2 Z,4E)-pentadienoic acid [ABA]
- Average number of broken buds per vine (6 days after warming): 0.2
- Average number of broken buds per vine (7 days after warming): 0.2
- Average number of broken buds per vine (8 days after warming): 0.8
- Average number of broken buds per vine (11 days after warming): 2.8
- Average number of broken buds per vine (12 days after warming): 3.2
- Average number of broken buds per vine (13 days after warming): 3.8
- Average number of broken buds per vine (14 days after warming): 4.8
- Average number of broken buds per vine (15 days after warming): 5.3
- Average number of broken buds per vine (19 days after warming): 7.0
- Average number of broken buds per vine (20 days after warming): 7.0
- Effect on average number of broken buds over time (repeated spray application during the bud break period): not significantly impacted

— US20130072385A1, “METHODS FOR DELAYING BUD BREAK BY APPLYING ABA ANALOGS” (priority 2011, published 2013)
